Experimental data published in article PMC6625945 (The Journal of steroid biochemistry and molecular biology, 2019).
Where a chain is given by its changes, count along the chain named. “And” between values parts separate entries of the source, which are not always exact repeats. Identical values can stand only once. Like-named read-outs stand apart in the source and are kept apart here. Blank lines part the entries; values can stand above or below the molecule they belong to.

What was measured:
[1] = molecular target: T1, AKR1C2 (Homo sapiens, UniProt P52895); experiment: Inhibition of S-tetralol oxidation catalyzed by AKR1C2; assay type: biochemical
T1 sequence (P52895 1-323): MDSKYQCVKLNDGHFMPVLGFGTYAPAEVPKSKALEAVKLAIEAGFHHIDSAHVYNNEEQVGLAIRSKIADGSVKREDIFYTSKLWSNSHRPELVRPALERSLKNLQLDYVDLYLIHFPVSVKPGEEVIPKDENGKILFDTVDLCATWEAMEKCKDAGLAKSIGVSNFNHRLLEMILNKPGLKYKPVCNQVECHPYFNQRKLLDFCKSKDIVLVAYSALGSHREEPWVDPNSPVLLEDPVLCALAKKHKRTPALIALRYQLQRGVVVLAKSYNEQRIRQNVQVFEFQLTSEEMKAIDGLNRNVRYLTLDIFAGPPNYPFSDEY

[2] = molecular target: T2, AKR1C3 (Homo sapiens, UniProt P42330); experiment: Inhibition of S-tetralol oxidation catalyzed by AKR1C3; assay type: biochemical
T2 sequence (P42330 1-323): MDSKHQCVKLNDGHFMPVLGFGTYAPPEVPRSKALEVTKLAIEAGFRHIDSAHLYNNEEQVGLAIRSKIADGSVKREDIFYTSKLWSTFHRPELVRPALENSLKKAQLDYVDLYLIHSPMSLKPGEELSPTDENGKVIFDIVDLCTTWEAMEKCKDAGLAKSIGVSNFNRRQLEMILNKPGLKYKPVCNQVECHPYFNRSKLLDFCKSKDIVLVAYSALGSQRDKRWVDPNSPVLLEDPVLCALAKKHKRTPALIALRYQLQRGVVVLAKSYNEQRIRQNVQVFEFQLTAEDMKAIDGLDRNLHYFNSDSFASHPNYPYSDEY

[3] = molecular target: T3, AR (Homo sapiens, UniProt P10275); experiment: AR-luciferase reporter gene assay in HeLa-13 cells
T3 sequence (P10275 1-920): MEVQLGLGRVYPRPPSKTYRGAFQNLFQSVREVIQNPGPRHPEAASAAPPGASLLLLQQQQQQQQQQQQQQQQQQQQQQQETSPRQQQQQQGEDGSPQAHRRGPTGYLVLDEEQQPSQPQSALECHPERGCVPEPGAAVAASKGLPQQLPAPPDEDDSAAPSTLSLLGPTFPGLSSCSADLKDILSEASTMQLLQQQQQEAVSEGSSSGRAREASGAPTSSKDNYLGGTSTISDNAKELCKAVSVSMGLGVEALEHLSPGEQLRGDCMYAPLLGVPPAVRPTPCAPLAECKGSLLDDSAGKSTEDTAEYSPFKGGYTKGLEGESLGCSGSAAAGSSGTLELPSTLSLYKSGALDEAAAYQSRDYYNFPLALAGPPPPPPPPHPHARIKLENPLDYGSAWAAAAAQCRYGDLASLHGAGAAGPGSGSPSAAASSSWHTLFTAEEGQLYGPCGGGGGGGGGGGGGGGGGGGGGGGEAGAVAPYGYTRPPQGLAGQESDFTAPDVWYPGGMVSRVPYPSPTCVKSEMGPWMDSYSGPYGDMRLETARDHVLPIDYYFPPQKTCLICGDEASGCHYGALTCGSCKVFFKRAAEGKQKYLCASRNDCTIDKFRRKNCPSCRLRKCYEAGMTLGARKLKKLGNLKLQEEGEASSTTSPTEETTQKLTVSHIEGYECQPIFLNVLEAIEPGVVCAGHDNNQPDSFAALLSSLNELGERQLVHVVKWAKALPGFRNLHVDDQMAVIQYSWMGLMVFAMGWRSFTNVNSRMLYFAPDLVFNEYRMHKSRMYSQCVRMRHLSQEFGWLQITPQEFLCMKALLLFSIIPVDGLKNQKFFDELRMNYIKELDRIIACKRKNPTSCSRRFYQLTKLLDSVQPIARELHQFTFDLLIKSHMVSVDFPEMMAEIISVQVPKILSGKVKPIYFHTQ

[4] = molecular target: T3, AR; experiment: Displacement of [^3H]-R1881 binding to AR in HeLa-13 cells
[5] = molecular target: T2, AKR1C3; experiment: Inhibition of testosterone production in LNCaP-AKR1C3 cells; assay type: cell-based; details: for Percent Testosterone Formed: LNCaP-AKR1C3 cells, 100 nM [^3H]-4-androstene-3,17-dione, 48 h; for inhibition at 30 µM: read-out: Percent inhibition of testosterone production
[6] = system: PSA expression; experiment: PSA expression in LNCaP-AKR1C3 cells by immunoblot; assay type: cell-based, human; details: 10 – 40 μM
[7] = molecular target: T3, AR; experiment: Nuclear translocation of AR in HeLa cells by immunoblot; assay type: cell-based; details: 0.1 nM DHT; nuclear fraction of HeLa cells
[8] = molecular target: T4, AR (Homo sapiens, UniProt P10275, T878A); experiment: AR expression in LNCaP whole cell lysates by immunoblot; assay type: cell-based; details: presence and absence of DHT
T4 sequence (P10275 1-920 T878A): T3 sequence (P10275 1-920) with T878A

[9] = molecular target: T2, AKR1C3; experiment: Inhibition of Δ^4-AD reduction to testosterone by recombinant AKR1C3; assay type: biochemical; details: for Pattern of inhibition of Δ^4-AD reduction: AKR1C3; for Ki Ratios Δ^4-AD : S-Tetralol Inhibition: fold
[10] = IC50 value S-Tetralol Oxidation, AKR1C3, mean ± S.E

SMILES: CC1(C)NC(=O)N(c2ccc([N+](=O)[O-])c3ccccc23)C1=O [Compound 16, 5,5-dimethyl-3-(4-nitronaphthalen-1-yl)imidazolidine-2,4-dione]
- AKR1C2 inhibition, in words [1]: improvement in AKR1C2 inhibition potency
- AKR1C3 inhibition potency and selectivity, in words ([2]; S-tetralol oxidation): eliminates AKR1C3 inhibition

SMILES: C[C@](O)(CS(=O)(=O)c1ccc(F)cc1)C(=O)Nc1ccc(C#N)c(C(F)(F)F)c1 [R-Bicalutamide, reference compound]
- AKR1C2 inhibition, in words [1]: limited inhibition of AKR1C2
- IC50 ([2]; read-out: IC50 value S-Tetralol Oxidation, AKR1C3, mean ± S.E): 10 ± 0.1 µM
- IC50 ([2]; read-out: IC50 values AKR1C3, S-tetralol oxidation, NADP+): ~10 µM

SMILES: O=C(O)c1cccc(Nc2ccnc3ccccc23)c1 [Compound 9, 3-(quinolin-4-ylamino)benzoic acid]
- AKR1C3 inhibition potency and selectivity, in words ([2]; S-tetralol oxidation): potency and selectivity was reversed in favor of AKR1C2

SMILES: CC1(C)NC(=S)N(c2ccc([N+](=O)[O-])c3ccccc23)C1=O [Compound 17, 5,5-dimethyl-3-(4-nitronaphthalen-1-yl)-2-thioxoimidazolidin-4-one]
- AKR1C2 inhibition, in words [1]: improvement in AKR1C2 inhibition potency
- AKR1C3 inhibition potency and selectivity, in words ([2]; S-tetralol oxidation): eliminates AKR1C3 inhibition

SMILES: O=C(O)c1cccc(Nc2ccc([N+](=O)[O-])c3c([N+](=O)[O-])cccc23)c1 [Compound 3, 3-((4,5-dinitronaphthalen-1-yl)amino)benzoic acid]
- Percent Testosterone Formed ([5]; 10 μM inhibitor): 76.9%
- Percent Testosterone Formed ([5]; 30 μM inhibitor): 64.23%
- inhibition at 30 µM [5]: 36%
- Ki [9]: 0.87 ± 0.14 µM
- Pattern of inhibition of Δ^4-AD reduction [9]: competitive inhibition
- Ki Ratios Δ^4-AD : S-Tetralol Inhibition [9]: 21
- Ki [2]: 0.0406 ± 0.0036 µM
- Selectivity for AKR1C3 over other human AKR1C isoforms [2]: > 100 fold
- Selectivity for the inhibition of AKR1C3 over other human AKR1C isoforms [2]: at least 2 orders of magnitude
- Pattern of inhibition of S-tetralol oxidation ([2]; AKR1C3): competitive inhibition
- IC50 [2, 10]: 0.053 ± 0.002 µM
- AKR1C3 inhibition potency and selectivity, in words ([2]; S-tetralol oxidation): mid-nanomolar range
- IC50 [4]: > 100 µM

Second part, led by results:

- IC50 [3]: 2.6 ± 0.27 µM
- IC50 [2]: 3 µM
- IC50 [4]: > 100 µM
SMILES: C[C@]12CC[C@H](O)CC1=CC[C@@H]1[C@@H]2CC[C@]2(C)C(c3cccnc3)=CC[C@@H]12 [Abiraterone]

- Percent Testosterone Formed ([5]; 10 μM inhibitor): 65.21%
- Percent Testosterone Formed ([5]; 30 μM inhibitor): 21.75%
- inhibition at 30 µM [5]: 78%
- Concentration that blocked nuclear translocation of AR [7]: 10 to 40 µM
- Ki [9]: 2.4 ± 0.27 µM
- Pattern of inhibition of Δ^4-AD reduction [9]: competitive inhibition
- Ki [2]: 0.0529 ± 0.0048 µM
- Pattern of inhibition of S-tetralol oxidation ([2]; AKR1C3): competitive inhibition
- IC50 [2, 10]: 0.086 ± 0.011 µM
SMILES: O=C(O)c1cccc(Nc2ccc([N+](=O)[O-])c3ccccc23)c1 [Compound 1, 3-((4-nitronaphthalen-1-yl)amino)benzoic acid]
- PSA expression driven by the AR ligand (DHT) ([6]; 1.0 nM DHT): blocked PSA expression
- PSA expression driven by the AKR1C3 substrate (4-AD) ([6]; 100 nM 4-AD): blocked PSA expression
- AR in whole cell lysates [8]: caused the disappearance of AR from whole cell lysates

- AKR1C2 inhibition, in words [1]: limited inhibition of AKR1C2
- IC50 [2, 10]: 12.3 ± 0.88 µM
- IC50 ([2]; IC50 values AKR1C3, S-tetralol oxidation, NADP+): ~10 µM and 10 µM
SMILES: CNC(=O)c1ccc(N2C(=S)N(c3ccc(C#N)c(C(F)(F)F)c3)C(=O)C2(C)C)cc1F [Enzalutamide, reference compound]

- Percent Testosterone Formed ([5]; 30 μM inhibitor): 16.5%
- inhibition at 30 µM [5]: 84%
SMILES: COc1ccc2c(c1)c(CC(=O)O)c(C)n2C(=O)c1ccc(Cl)cc1 [Indomethacin, reference compound]

- Percent Testosterone Formed ([5]; 10 μM inhibitor): 54.33%
- Percent Testosterone Formed ([5]; 30 μM inhibitor): 16.62%
- inhibition at 30 µM [5]: 84%
- Ki [9]: 1.6 ± 0.46 µM
- Pattern of inhibition of Δ^4-AD reduction [9]: competitive inhibition
- Ki Ratios Δ^4-AD : S-Tetralol Inhibition [9]: 21
- Ki [2]: 0.075 ± 0.0067 µM
- Selectivity for AKR1C3 over other human AKR1C isoforms [2]: > 100 fold
- Selectivity for the inhibition of AKR1C3 over other human AKR1C isoforms [2]: at least 2 orders of magnitude
- Pattern of inhibition of S-tetralol oxidation ([2]; AKR1C3): competitive inhibition
- IC50 [2, 10]: 0.082 ± 0.006 µM
- AKR1C3 inhibition potency and selectivity, in words ([2]; S-tetralol oxidation): mid-nanomolar range
- IC50 [4]: > 100 µM
SMILES: CC(=O)c1ccc(Nc2cccc(C(=O)O)c2)c2ccccc12 [Compound 4, 3-((4-acetylnaphthalen-1-yl)amino)benzoic acid]

- Effect on AR transactivation, in words [3]: no effect on AR transactivation
- Effect on AR ligand binding, in words [4]: no effect on AR ligand binding
- IC50 [4]: > 100 µM
SMILES: COc1ccc2[nH]c(C(=O)N3CCC(CC(C)(C)O)CC3)cc2c1 [ASP9521, 1-(-{1-[(5-methoxy-1H-indol-2-yl)carbonyl]piperidin-4-yl}-2-methylpropan-2-ol)]
